Data as given in the NIST ThermoML archive (doi:10.1021/je700535q).

Experiment: xn = mol fraction of the nth substance listed
Settings: 101 kPa, Liquid, x1 = 0

Row | SMILES | binary diffusion coefficient (333.2 K) | binary diffusion coefficient (353.2 K) | binary diffusion coefficient (373.2 K) | binary diffusion coefficient (453.2 K) | binary diffusion coefficient (473.2 K) | binary diffusion coefficient (433.2 K) | binary diffusion coefficient (443.2 K) | binary diffusion coefficient (313.2 K) | binary diffusion coefficient (418.2 K) | binary diffusion coefficient (393.2 K) | binary diffusion coefficient (413.2 K) | binary diffusion coefficient (423.2 K) | binary diffusion coefficient (463.2 K)
1 | c1ccc2cc3ccccc3cc2c1 [anthracene] + CCCCCCCCCCCCCC | 9.4e-10 m2/s | 1.36e-09 m2/s | 1.38e-09 m2/s | 5.56e-09 m2/s |  | 3.43e-09 m2/s | 4.57e-09 m2/s |  |  | 2.03e-09 m2/s |  |  | 
2 | c1ccc2sccc2c1 [benzo[b]thiophene] + CCCCCCCCCCCCCC | 1.19e-09 m2/s | 1.65e-09 m2/s | 2.1e-09 m2/s | 4.77e-09 m2/s |  |  |  |  |  | 2.51e-09 m2/s | 3.19e-09 m2/s | 3.83e-09 m2/s | 
3 | c1ccc2c(c1)sc1ccccc12 [dibenzothiophene] + CCCCCCCCCCCCCC | 1.06e-09 m2/s | 1.41e-09 m2/s |  | 3.96e-09 m2/s |  | 3.41e-09 m2/s |  |  |  | 2.13e-09 m2/s | 2.61e-09 m2/s | 3.14e-09 m2/s | 5.01e-09 m2/s

Now from value to molecule, other results behind:

Row | binary diffusion coefficient (333.2 K) | binary diffusion coefficient (353.2 K) | binary diffusion coefficient (373.2 K) | binary diffusion coefficient (453.2 K) | binary diffusion coefficient (473.2 K) | binary diffusion coefficient (433.2 K) | binary diffusion coefficient (443.2 K) | binary diffusion coefficient (313.2 K) | binary diffusion coefficient (418.2 K) | SMILES | binary diffusion coefficient (393.2 K) | binary diffusion coefficient (413.2 K) | binary diffusion coefficient (423.2 K) | binary diffusion coefficient (463.2 K)
4 | 1.27e-09 m2/s | 1.55e-09 m2/s | 2e-09 m2/s | 3.96e-09 m2/s | 5.08e-09 m2/s |  |  |  |  | c1ccc2nc3ccccc3cc2c1 [acridine] + CCCCCCCCCCCCCC | 2.4e-09 m2/s | 2.93e-09 m2/s | 3.74e-09 m2/s | 
5 | 1.42e-09 m2/s | 1.86e-09 m2/s | 2.28e-09 m2/s | 5.56e-09 m2/s |  | 4.64e-09 m2/s |  | 1.03e-09 m2/s | 3.69e-09 m2/s | c1ccc2ccccc2c1 [naphthalene] + CCCCCCCCCCCCCC |  |  |  | 
